These results are taken from patent publication US20140163456A1, “METHOD OF PRODUCING SUBSTANCES WITH SUPERSATURATED GAS, TRANSDERMAL DELIVERY DEVICE THEREOF, AND USES THEREOF” (INVISIDERM, LLC, priority 2011, published 2014).

The test system of experiment [1] is individuals. The experiment is described as follows: Measurement of brachial diastolic and systolic blood pressure on right upper arm. It counts as in vivo, human. On the procedure:
(§1) The treatment was administered by having an individual insert the left thumb into the open-ended delivery outlet of a device disclosed herein creating a seal. The digit will be “bathed” for five minutes with a vapor including supersaturated dissolved molecular carbon dioxide from a canister providing pure, medical-grade carbon dioxide. Nine individuals were examined.
To conduct this study, individuals from the study described in Example 1 had there blood pressure taken. A measurement of both brachial diastolic blood pressure and systolic blood pressure was performed on the individual's right upper arm at six time points 1) 5 minutes before treatment (pre-treatment); 2) 5 minutes post-treatment; 3) 30 minutes post-treatment; 4) 60 minutes post-treatment; 5) 120 minutes post-treatment; and 6) 240 minutes post-treatment.

Experiment [2] relates to individuals. Put plainly: Measurement of blood flow: Skin Perfusion Pressure (SensiLase System) on right toe, capillary blood flow change. It counts as in vivo, human. On the procedure:
as §1
Tissue perfusion in distal arteries was accessed using a SensiLase System (a FDA-cleared device) and measuring Skin Perfusion Pressure (SPP) and Pulse Volume Recording (PVR). SPP is a pressure measurement in mmHg that assess local blood perfusion in capillaries using a laser Doppler to measure reactive hyperemia, which reflects microcirculation for distal arterial blood flow. PVR is a measurement of plethysmography to assess changes in arterial blood volume. A change in capillary blood flow (CBF) is calculated by determining the change in SPP values over time. For this study, the CBF values of all post-treatment measurements were calculated by dividing the post-treatment SPP value by the pre-treatment SPP value. A measurement of SPP was performed on the individual's right toe at six time points 1) 5 minutes before treatment (pre-treatment); 2) 5 minutes post-treatment; 3) 30 minutes post-treatment; 4) 60 minutes post-treatment; 5) 120 minutes post-treatment; and 6) 240 minutes post-treatment.

[3] abbreviates: nine individuals, 5 to 240 min post-treatment.
[4] abbreviates: over the course of the entire 240 minute study.

SMILES strings stand for the structures.

With `O=C=O` [molecular carbon dioxide, carbon dioxide], the blood pressure result with individuals [1] (setting [3]) is given as “decreased blood pressure in all individuals examined at some point during the time period measured”. In addition, the “diastolic and systolic blood pressure” value in the experiment on individuals [1] (setting [4]) is “Seven of the nine individuals studied showed decreased diastolic and systolic blood pressure”. For the same compound, in the experiment with individuals [2] (setting [3]), the blood flow entry is recorded as “increases blood flow in all individuals examined at some point during the time period measured”. For the same compound, the “sustained increases in capillary blood flow” value in the experiment with individuals [2] (setting [4]) is recorded as “six of the nine patients showed sustained increases in capillary blood flow”.
